Assay results taken from publication PMC8119466, “A screen of FDA-approved drugs identifies inhibitors of protein tyrosine phosphatase 4A3 (PTP4A3 or PRL-3)” (Scientific Reports, 2021).
Structures can show the parent of a compound that is named as a salt. Where two headings read alike, the source gives them in different places.

Assays:
Assay type in all cases: biochemical
recombinant PRL-3 = target: T1, recombinant PRL-3 (Homo sapiens, UniProt O75365); test: In vitro phosphatase assay (DiFMUP hydrolysis), PRL-3; note: test concentration or dose not given here
T1 construct: 6xHis (N, cleaved yes); made in house; host or cells: E. coli One Shot BL21 Star

recombinant PRL-1 = target: T2, recombinant PRL-1 (Homo sapiens, UniProt Q93096); test: In vitro phosphatase assay (DiFMUP hydrolysis), PRL-1; note: test concentration or dose not given here
T2 construct: 6xHis (N, cleaved yes); made in house; host or cells: E. coli One Shot BL21 Star
T2 sequence (Q93096 1-173): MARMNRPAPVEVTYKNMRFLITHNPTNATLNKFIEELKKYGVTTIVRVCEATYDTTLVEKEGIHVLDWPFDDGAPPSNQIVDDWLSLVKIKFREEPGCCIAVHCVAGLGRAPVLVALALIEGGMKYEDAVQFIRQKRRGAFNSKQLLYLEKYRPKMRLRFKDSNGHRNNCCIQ

recombinant PRL-2 = target: T3, recombinant PRL-2 (Homo sapiens, UniProt Q12974); test: In vitro phosphatase assay (DiFMUP hydrolysis), PRL-2;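 note: PRL-2 activity read as DiFMUP hydrolysis after 20 min at room temperature with drug, enzyme first pre-reduced at 4 °C for 20 min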
T3 construct: 6xHis (N, cleaved yes); made in house; host or cells: E. coli One Shot BL21 Star
T3 sequence (Q12974 1-167): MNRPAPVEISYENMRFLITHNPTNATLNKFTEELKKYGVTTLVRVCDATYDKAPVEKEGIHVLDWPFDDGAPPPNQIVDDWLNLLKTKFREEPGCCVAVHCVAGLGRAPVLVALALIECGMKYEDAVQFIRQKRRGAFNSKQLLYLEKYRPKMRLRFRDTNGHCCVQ

[1] = FDA-approved drug screen, activity compared to DMSO
[2] = FDA-approved drug screen, compared to DMSO

T1 sequence (O75365 whole entry): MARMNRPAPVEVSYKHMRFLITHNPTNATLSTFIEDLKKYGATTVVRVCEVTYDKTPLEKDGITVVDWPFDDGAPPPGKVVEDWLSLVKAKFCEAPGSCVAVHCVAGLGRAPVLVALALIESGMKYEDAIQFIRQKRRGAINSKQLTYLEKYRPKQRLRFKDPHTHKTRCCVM

SMILES	% Phosphatase Activity (compared to DMSO) PRL-3 (recombinant PRL-3; [2])	% Phosphatase Activity (compared to DMSO) PRL-1 (recombinant PRL-1; [2])	% Phosphatase Activity (compared to DMSO) PRL-2 (recombinant PRL-2; [2])	further results
Nc1ccc(S(=O)(=O)NC(=O)c2ccccc2)cc1 [Sulfabenzamide]	–	–	–	% Phosphatase Activity (compared to DMSO) PRL-3 (recombinant PRL-3; [1]): 83%; % Phosphatase Activity (compared to DMSO) PRL-1 (recombinant PRL-1; [1]): 93%; % Phosphatase Activity (compared to DMSO) PRL-2 (recombinant PRL-2; [1]): 121%
[NH2][Pt]1([NH2])[O]CC(=O)[O]1 [Nedaplatin]	94%	102%	97%	–
CN1CCN(c2ccc(C(=O)Nc3n[nH]c4ccc(Cc5cc(F)cc(F)c5)cc34)c(NC3CCOCC3)c2)CC1 [Entrectinib (RXDX-101)]	180%	344%	282%	–
CN1C(C(=O)Nc2ccccn2)=C(O)c2sc(Cl)cc2S1(=O)=O [Lornoxicam]	81%	73%	84%	–
Cc1cccc(C)c1OCC(C)N (stereo not drawn) [Mexiletine HCl]	–	–	–	% Phosphatase Activity (compared to DMSO) PRL-3 (recombinant PRL-3): 78%; % Phosphatase Activity (compared to DMSO) PRL-1 (recombinant PRL-1): 98%; % Phosphatase Activity (compared to DMSO) PRL-2 (recombinant PRL-2): 106%
Nc1ccccc1NC(=O)c1ccc(CNC(=O)OCc2cccnc2)cc1 [Entinostat (MS-275)]	80%	91%	91%	–
Nc1[nH]c(=O)ncc1F [Flucytosine]	74%	99%	92%	–
Cl.Cl.OCCN1CCN(CCCN2c3ccccc3Sc3ccc(C(F)(F)F)cc32)CC1 [Fluphenazine (dihydrochloride)]	88%	94%	101%	–
CN(C)CCOc1ccc(/C(=C(/CCCl)c2ccccc2)c2ccccc2)cc1 [Toremifene Citrate]	–	–	–	% Phosphatase Activity (compared to DMSO) PRL-3 (recombinant PRL-3; [1]): 103%; % Phosphatase Activity (compared to DMSO) PRL-1 (recombinant PRL-1; [1]): 95%; % Phosphatase Activity (compared to DMSO) PRL-2 (recombinant PRL-2; [1]): 105%
CC(=O)Nc1cccc(-n2c(=O)n(C3CC3)c(=O)c3c(Nc4ccc(I)cc4F)n(C)c(=O)c(C)c32)c1 [Trametinib (GSK1120212)]	–	–	–	% Phosphatase Activity (compared to DMSO) PRL-3 (recombinant PRL-3; [1]): 88%; % Phosphatase Activity (compared to DMSO) PRL-1 (recombinant PRL-1; [1]): 88%; % Phosphatase Activity (compared to DMSO) PRL-2 (recombinant PRL-2; [1]): 112%
CCCCc1ncc(/C=C(\Cc2cccs2)C(=O)O)n1Cc1ccc(C(=O)O)cc1 [Eprosartan Mesylate]	72%	89%	100%	–
COc1ccc(CN2CCN(C(c3ccc(F)cc3)c3ccc(F)cc3)CC2)c(OC)c1OC.Cl.Cl [Lomerizine HCl]	84%	97%	118%	–
C[C@H](CCC(=O)O)[C@H]1CC[C@H]2[C@@H]3CC[C@@H]4C[C@H](O)CC[C@]4(C)[C@H]3CC[C@]12C [Lithocholic acid]	73%	82%	75%	–
O=C(NCCO[N+](=O)[O-])c1cccnc1 [Nicorandil]	91%	86%	103%	–
O=C(O)c1nn(Cc2ccc(Cl)cc2Cl)c2ccccc12 [Lonidamine]	85%	102%	106%	–
OCC(O)CN1CCN(c2ccccc2)CC1 (stereo not drawn) [Dropropizine]	76%	91%	110%	–
CCCc1nn(C)c2c(=O)[nH]c(-c3cc(S(=O)(=O)N4CCN(C)CC4)ccc3OCC)nc12 [Sildenafil]	–	–	–	% Phosphatase Activity (compared to DMSO) PRL-3 (recombinant PRL-3; [1]): 99%; % Phosphatase Activity (compared to DMSO) PRL-1 (recombinant PRL-1; [1]): 75%; % Phosphatase Activity (compared to DMSO) PRL-2 (recombinant PRL-2; [1]): 72%
